Earlier results on one compound are cited in US5424332A, “Pharmaceutical composition and process for the production thereof” (priority 1993, dated 1995).

The data set deals with aflotoxin toxic effects.

In the case of `O=C(O)/C=C/C(=O)O` [fumaric acid], the “toxic effects of aflotoxin” value was “reduces the toxic effects”.
